Source: patent US8642788B2, “Activators of executioner procaspases 3, 6 and 7” (The Regents of the University of California, priority 2008, dated 2014)
pEC50: −log10 of the molar value. Like-named read-outs stand apart in the source and are kept apart here.

Assays:
Assay type in all cases: biochemical
[1] = molecular target: T1, procaspase-3 (Homo sapiens, UniProt P42574); test: Executioner procaspase-3 activation assay (Ac-DEVD-AFC fluorogenic substrate)
T1 construct: His6 (C); made in house; host or cells: E. coli BL21(DE3)RP, pET-23b
T1 sequence (P42574 1-277): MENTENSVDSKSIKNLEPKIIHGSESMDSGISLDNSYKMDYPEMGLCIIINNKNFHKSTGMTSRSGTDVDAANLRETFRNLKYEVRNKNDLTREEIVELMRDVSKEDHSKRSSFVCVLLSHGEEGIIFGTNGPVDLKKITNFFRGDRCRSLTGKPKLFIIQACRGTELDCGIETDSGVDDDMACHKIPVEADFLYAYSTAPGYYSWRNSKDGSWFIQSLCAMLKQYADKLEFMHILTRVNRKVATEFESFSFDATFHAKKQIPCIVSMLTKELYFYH
Summary of the method: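 Procaspase-3 at 100 nM was incubated with activating compounds (100 nM to 100 uM) in 50 mM HEPES pH 7.4, 50 mM KCl, 1 mM DTT and 0.01% Triton-X100, the detergent limiting aggregation artefacts. Protein, substrate and inhibitor were kept as frozen aliquots and thawed just before use.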

[2] = molecular target: T2, procaspase-7 (Homo sapiens, UniProt P55210); test: Executioner procaspase-7 activation assay (Ac-DEVD-AFC fluorogenic substrate); conditions: incubation with compound for 5 h at 37° C.; 100 nM procaspase
T2 construct: His6 (C); made in house; host or cells: E. coli BL21(DE3)RP, pET-21b
T2 sequence (P55210 1-303): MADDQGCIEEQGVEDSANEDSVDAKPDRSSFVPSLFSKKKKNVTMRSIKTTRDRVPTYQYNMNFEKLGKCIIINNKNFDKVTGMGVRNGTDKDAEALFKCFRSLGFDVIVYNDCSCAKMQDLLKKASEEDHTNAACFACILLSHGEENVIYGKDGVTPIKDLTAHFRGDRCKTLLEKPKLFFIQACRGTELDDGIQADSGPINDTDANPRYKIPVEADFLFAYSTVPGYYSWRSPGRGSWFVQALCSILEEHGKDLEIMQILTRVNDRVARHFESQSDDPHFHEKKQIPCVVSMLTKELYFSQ
Experimental: The executioner procaspase-3, -6 and -7 activation assay protocol involves incubating the target protein at the physiologically-relevant concentration of 100 nM with activating compounds (ranging from 100 nM to 100 uM) in a total volume of 50 μL consisting of a reaction buffer of 50 mM HEPES, pH 7.4, 50 mM KCl, 1 mM DTT and 0.01% Triton-X100 (to reduce false positive hits due to compound aggregation). The procaspase/small molecule incubations are then agitated at 37° C. and assayed at various time points by addition of the fluorogenic peptide substrate 7-Amino-4-trifluoromethylcoumarin-DEVD (Ac-DEVD-AFC) (procaspases-3, -7) or Ac-VEID-AFC (procaspase-6) to a final concentration of 25 μM and analyzed by a kinetic 30 minute assay (excitation 365 nm and emission 495 nm). The final concentration of DMSO in each well is 3% and has no effect on enzyme stability or activity. […] All components of the assay including protein, substrate and inhibitor are stored as frozen aliquots and thawed immediately prior to the assay.
Tables 1 and 2. Procaspase activation as a result of incubation with compound for 5 h at 37° C. (+++ EC50˜0.5-10 μM; ++ EC50˜10-50 μM; + EC50˜50-200 μM; -no activation observed; ND not determined).

[3] = molecular target: T3, procaspase-6 (Homo sapiens, UniProt P55212); test: Executioner procaspase-6 activation assay (Ac-VEID-AFC fluorogenic substrate); conditions: incubation with compound for 5 h at 37° C.; 100 nM procaspase
T3 sequence (P55212 1-293): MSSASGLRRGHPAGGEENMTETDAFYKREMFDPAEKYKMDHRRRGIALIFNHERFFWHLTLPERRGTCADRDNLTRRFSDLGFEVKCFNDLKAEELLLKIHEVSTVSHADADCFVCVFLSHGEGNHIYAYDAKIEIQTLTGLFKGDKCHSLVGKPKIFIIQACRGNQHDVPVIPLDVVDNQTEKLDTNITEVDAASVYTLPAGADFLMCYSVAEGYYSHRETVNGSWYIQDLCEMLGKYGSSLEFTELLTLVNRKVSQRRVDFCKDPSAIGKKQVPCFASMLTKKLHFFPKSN
Summary of the method: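 Procaspase at 100 nM incubated with compound (100 nM–100 μM) in 50 mM HEPES pH 7.4, KCl, DTT, 0.01% Triton X-100, 3% DMSO, 37 °C for 5 h; then 25 μM Ac-DEVD-AFC (procaspase-7) or Ac-VEID-AFC (procaspase-6), kinetic fluorescence 30 min (ex 365/em 495); EC50 reported.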

[4] = incubation with compound for 5 h at 37° C., 100 nM procaspase, read-out: Procaspase Activation 3

## COc1cccc2cc(C(=O)Nc3cccc(-c4cnc5ccccc5c4)c3)c(=O)oc12 [compound 84, 8-Methoxy-2-oxo-2H-chromene-3-carboxylic acid [3-Quinolin-3-yl-phenyl]-amide]
[1]; [4]
  pEC50: < 4.00
[2]
  pEC50: < 4.00
[3]
  pEC50: < 4.00

## O=C(Nc1cccc(-c2cnc3ccccc3c2)c1)c1cc2cccc(OC(F)(F)F)c2oc1=O [compound 85, 8-Trifluoromethoxy-2-oxo-2H-chromene-3-carboxylic acid [3-Quinolin-3-yl-phenyl]-amide]
[1]; [4]
  pEC50: < 4.00
[2]
  pEC50: < 4.00
[3]
  pEC50: < 4.00

## O=C(Nc1cccc(-c2ccc3c(c2)OCCO3)c1)c1cc2cccc(O)c2oc1=O [compound 86, 8-Hydroxy-2-oxo-2H-chromene-3-carboxylic acid [3-(2,3-dihydro-benzo[1,4]dioxin-6-yl)-phenyl]-amide]
[1]; [4]
  pEC50: < 4.00
[2]
  pEC50: < 4.00
[3]
  pEC50: < 4.00

## COc1cccc2cc(C(=O)Nc3cccc(-c4ccc5c(c4)OCCO5)c3)c(=O)oc12 [compound 87, 8-Methoxy-2-oxo-2H-chromene-3-carboxylic acid [3-(2,3-dihydro-benzo[1,4]dioxin-6-yl)-phenyl]-amide]
[1]; [4]
  pEC50: < 4.00
[2]
  pEC50: < 4.00
[3]
  pEC50: < 4.00

## O=C(Nc1cccc(-c2ccc3c(c2)OCCO3)c1)c1cc2cccc(OC(F)(F)F)c2oc1=O [compound 88, 8-Trifluoromethoxy-2-oxo-2H-chromene-3-carboxylic acid [3-(2,3-dihydro-benzo[1,4]dioxin-6-yl)-phenyl]-amide]
[1]; [4]
  pEC50: < 4.00
[2]
  pEC50: < 4.00
[3]
  pEC50: < 4.00

## N#Cc1ccccc1-c1cccc(NC(=O)c2cc3cccc(O)c3oc2=O)c1 [compound 89, 8-Hydroxy-2-oxo-2H-chromene-3-carboxylic acid (2′-cyano-biphenyl-3-yl)-amide]
[1]; [4]
  pEC50: < 4.00
[2]
  pEC50: < 4.00
[3]
  pEC50: < 4.00

## COc1cccc2cc(C(=O)Nc3cccc(-c4ccccc4C#N)c3)c(=O)oc12 [compound 90, 8-Methoxy-2-oxo-2H-chromene-3-carboxylic acid (2′-cyano-biphenyl-3-yl)-amide]
[1]; [4]
  pEC50: < 4.00
[2]
  pEC50: < 4.00
[3]
  pEC50: < 4.00

## N#Cc1ccccc1-c1cccc(NC(=O)c2cc3cccc(OC(F)(F)F)c3oc2=O)c1 [compound 91, 8-Trifluoromethoxy-2-oxo-2H-chromene-3-carboxylic acid (2′-cyano-biphenyl-3-yl)-amide]
[1]; [4]
  pEC50: < 4.00
[2]
  pEC50: < 4.00
[3]
  pEC50: < 4.00

## O=C(Nc1cccc(-c2ccc3[nH]ccc3c2)c1)c1cc2cccc(O)c2oc1=O [compound 92, 8-Hydroxy-2-oxo-2H-chromene-3-carboxylic acid (3-(1H-Indol-5-yl)-phenyl)-amide]
[1]
  pEC50: < 4.00
[2]
  pEC50: < 4.00
[3]
  pEC50: < 4.00

## COc1cccc2cc(C(=O)Nc3cccc(-c4ccc5[nH]ccc5c4)c3)c(=O)oc12 [compound 93, 8-Methoxy-2-oxo-2H-chromene-3-carboxylic acid (3-(1H-Indol-5-yl)-phenyl)-amide]
[1]
  pEC50: < 4.00
[2]
  pEC50: < 4.00
[3]
  pEC50: < 4.00

## O=C(Nc1cccc(-c2ccc3[nH]ccc3c2)c1)c1cc2cccc(OC(F)(F)F)c2oc1=O [compound 94, 8-Trifluoromethoxy-2-oxo-2H-chromene-3-carboxylic acid (3-(1H-Indol-5-yl)-phenyl)-amide]
[1]
  pEC50: < 4.00
[2]
  pEC50: < 4.00
[3]
  pEC50: < 4.00

## CC(=O)Nc1ccccc1-c1cccc(NC(=O)c2cc3cccc(O)c3oc2=O)c1 [compound 95, 8-Hydroxy-2-oxo-2H-chromene-3-carboxylic acid (2′-acetylamino-biphenyl-3-yl)-amide]
[1]; [4]
  pEC50: < 4.00
[2]
  pEC50: < 4.00
[3]
  pEC50: < 4.00

## COc1cccc2cc(C(=O)Nc3cccc(-c4ccccc4NC(C)=O)c3)c(=O)oc12 [compound 96, 8-Methoxy-2-oxo-2H-chromene-3-carboxylic acid (2′-acetylamino-biphenyl-3-yl)-amide]
[1]; [4]
  pEC50: < 4.00
[2]
  pEC50: < 4.00
[3]
  pEC50: < 4.00

## CC(=O)Nc1ccccc1-c1cccc(NC(=O)c2cc3cccc(OC(F)(F)F)c3oc2=O)c1 [compound 97, 8-Trifluoromethoxy-2-oxo-2H-chromene-3-carboxylic acid (2′-acetylamino-biphenyl-3-yl)-amide]
[1]; [4]
  pEC50: < 4.00
[2]
  pEC50: < 4.00
[3]
  pEC50: < 4.00

## O=C(Nc1cccc(-c2ccccc2S(=O)(=O)N2CCOCC2)c1)c1cc2cccc(O)c2oc1=O [compound 98, 8-Hydroxy-2-oxo-2H-chromene-3-carboxylic acid (2′-(Morpholine-4-sulfonyl)-biphenyl-3-yl)-amide]
[1]; [4]
  pEC50: 4.30 to 5.00
[2]
  pEC50: 4.30 to 5.00
[3]
  pEC50: < 4.00

## COc1cccc2cc(C(=O)Nc3cccc(-c4ccccc4S(=O)(=O)N4CCOCC4)c3)c(=O)oc12 [compound 99, 8-Methoxy-2-oxo-2H-chromene-3-carboxylic acid (2′-(Morpholine-4-sulfonyl)-biphenyl-3-yl)-amide]
[1]; [4]
  pEC50: < 4.00
[2]
  pEC50: < 4.00
[3]
  pEC50: < 4.00

## O=C(Nc1cccc(-c2ccccc2S(=O)(=O)N2CCOCC2)c1)c1cc2cccc(OC(F)(F)F)c2oc1=O [compound 100, 8-Trifluoromethoxy-2-oxo-2H-chromene-3-carboxylic acid (2′-(Morpholine-4-sulfonyl)-biphenyl-3-yl)-amide]
[1]; [4]
  pEC50: < 4.00
[2]
  pEC50: < 4.00
[3]
  pEC50: < 4.00

## COc1ncc(-c2cccc(NC(=O)c3cc4cccc(O)c4oc3=O)c2)c(OC)n1 [compound 127, 8-Hydroxy-2-oxo-2H-chromene-3-carboxylic acid [3-(2,4-dimethoxy-pyrimidin-5-yl)-phenyl]-amide]
[1]; [4]
  pEC50: < 4.00
[2]
  pEC50: < 4.00
[3]
  pEC50: < 4.00

## COc1ncc(-c2cccc(NC(=O)c3cc4cccc(OC)c4oc3=O)c2)c(OC)n1 [compound 128, 8-Methoxy-2-oxo-2H-chromene-3-carboxylic acid [3-(2,4-dimethoxy-pyrimidin-5-yl)-phenyl]-amide]
[1]; [4]
  pEC50: < 4.00
[2]
  pEC50: < 4.00
[3]
  pEC50: < 4.00

## COc1ccc(-c2cccc(NC(=O)c3cc4cccc(O)c4oc3=O)c2)cn1 [compound 129, 8-Hydroxy-2-oxo-2H-chromene-3-carboxylic acid [3-(6-methoxy-pyridin-3-yl)-phenyl]-amide]
[1]; [4]
  pEC50: < 4.00
[2]
  pEC50: < 4.00
[3]
  pEC50: < 4.00

## COc1ccc(-c2cccc(NC(=O)c3cc4cccc(OC)c4oc3=O)c2)cn1 [compound 130, 8-Methoxy-2-oxo-2H-chromene-3-carboxylic acid [3-(6-methoxy-pyridin-3-yl)-phenyl]-amide]
[1]; [4]
  pEC50: < 4.00
[2]
  pEC50: < 4.00
[3]
  pEC50: < 4.00

## COc1cncc(-c2cccc(NC(=O)c3cc4cccc(O)c4oc3=O)c2)c1 [compound 131, 8-Hydroxy-2-oxo-2H-chromene-3-carboxylic acid [3-(5-methoxy-pyridin-3-yl)-phenyl]-amide]
[1]; [4]
  pEC50: < 4.00
[2]
  pEC50: < 4.00
[3]
  pEC50: < 4.00
